In assay [1] the target is IRAK4 (Homo sapiens (Human), UniProt Q9NWZ3). In words: IRAK-4 AlphaScreen biochemical kinase assay. To be noted: 1 nM IRAK4, 1 mM ATP, 3.5 h at RT. A digest of the protocol:
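AlphaScreen read-out: streptavidin beads bind the biotinylated peptide and protein A beads bind the anti-phosphothreonine antibody, so energy transfer reports phosphorylation of the peptide. The kinase is human IRAK-4.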

Assay [2] relates to IL-6 in A549 cells. In words: Cell-based IL-6 ELISA assay in IL-1beta stimulated A549 cells. The note with it: 2 ng/ml human IL-1beta overnight. A digest of the protocol:
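A549 cells (2.5×10^4/well, DMEM/10% FBS) pretreated 30 min at 37 C with compound, 10-point serial dilution from 10 uM, then stimulated overnight with 2 ng/ml human IL-1beta. Secreted IL-6 in supernatant quantified by human IL-6 ELISA.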
For orientation: In an ELISA, binding on a coated surface is turned into a signal by an enzyme label.

IRAK4, sequence (Q9NWZ3 whole entry, species assumed): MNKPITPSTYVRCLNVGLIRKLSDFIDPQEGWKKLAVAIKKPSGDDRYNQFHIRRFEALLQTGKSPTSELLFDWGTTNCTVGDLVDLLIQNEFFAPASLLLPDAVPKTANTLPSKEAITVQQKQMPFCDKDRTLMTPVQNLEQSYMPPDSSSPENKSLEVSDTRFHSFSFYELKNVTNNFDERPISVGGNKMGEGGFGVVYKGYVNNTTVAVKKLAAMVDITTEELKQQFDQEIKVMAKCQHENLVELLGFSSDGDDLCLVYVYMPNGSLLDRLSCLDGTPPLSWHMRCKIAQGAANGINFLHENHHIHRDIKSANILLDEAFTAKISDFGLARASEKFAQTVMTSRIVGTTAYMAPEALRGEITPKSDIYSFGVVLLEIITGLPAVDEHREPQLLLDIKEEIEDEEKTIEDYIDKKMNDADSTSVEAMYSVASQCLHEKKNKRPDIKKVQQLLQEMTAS

For orientation: IC50 means the concentration that gives 50% inhibition. Read a high IC50 as weaker potency in that assay. As a reminder, the EC50 is the midpoint of the concentration-response curve. Take `CCC[C@H](N)c1cccc(-c2ccc3cnn(-c4cncc(CO)n4)c3c2)n1` [Example 399, (S)-(6-(6-(6-(1-aminobutyl)pyridin-2-yl)-1H-indazol-1-yl)pyrazin-2-yl)methanol]: in assay [1], the IC50 was under 100 nM. The EC50 in assay [2] was at most 1000 nM.

As to `C[C@H](N)c1ccnc(-c2ccc3cnn(-c4cccc(CO)n4)c3c2)n1` [Example 411, (S)-(6-(6-(4-(1-aminoethyl)pyrimidin-2-yl)-1H-indazol-1-yl)pyridin-2-yl)methanol], the IC50 in assay [1] is under 100 nM. For the same compound, the EC50 in assay [2] is at most 1000 nM.

In assay [1], `CCC[C@H](N)c1ccnc(-c2ccc3cnn(-c4cccc(CO)n4)c3c2)n1` [Example 413, (S)-(6-(6-(4-(1-aminobutyl)pyrimidin-2-yl)-1H-indazol-1-yl)pyridin-2-yl)methanol] had an IC50 of under 100 nM. The same compound gave an EC50 in assay [2] of at most 1000 nM.

In assay [1], `CCC[C@@H](N)c1ccnc(-c2ccc3cnn(-c4cccc(CO)n4)c3c2)n1` [Example 414, (R)-(6-(6-(4-(1-aminobutyl)pyrimidin-2-yl)-1H-indazol-1-yl)pyridin-2-yl)methanol] registered an IC50 of under 100 nM. The compound also came in with an EC50 in assay [2] of at most 1000 nM.

As for `N[C@H](c1cccc(-c2ccc3cnn(-c4cccc(CO)n4)c3c2)n1)C1CCC1` [Example 422, (S)-(6-(6-(6-(amino(cyclobutyl)methyl)pyridin-2-yl)-1H-indazol-1-yl)pyridin-2-yl)methanol], in assay [1], the IC50 is under 100 nM. This compound displayed an EC50 in assay [2] of at most 1000 nM.

With `CCC[C@H](N)c1cccc(-c2cc(C3CCOCC3)c3cnn(-c4cccc(CO)n4)c3c2)n1` [Example 425, (S)-(6-(6-(6-(1-aminobutyl)pyridin-2-yl)-4-(tetrahydro-2H-pyran-4-yl)-1H-indazol-1-yl)pyridin-2-yl)methanol], the IC50 in assay [1] is under 100 nM. Also, the EC50 in assay [2] was at most 1000 nM.

For the compound `N[C@@H](CCC(F)(F)F)c1cccc(-c2ccc3cnn(-c4cccc(CO)n4)c3c2)n1` [Example 427, (S)-(6-(6-(6-(1-amino-4,4,4-trifluorobutyl)pyridin-2-yl)-1H-indazol-1-yl)pyridin-2-yl)methanol], in assay [1], the IC50 was under 100 nM. In assay [2], this compound came in with an EC50 of at most 1000 nM.

In the case of `C=C(C)C[C@H](N)c1cccc(-c2ccc3cnn(-c4cccc(CO)n4)c3c2)n1` [Example 436, (S)-(6-(6-(6-(1-amino-3-methylbut-3-en-1-yl)pyridin-2-yl)-1H-indazol-1-yl)pyridin-2-yl)methanol], the IC50 in assay [1] is under 100 nM. Moreover, in assay [2], the EC50 is at most 1000 nM.

`CC(F)(F)C[C@H](N)c1cccc(-c2ccc3cnn(-c4cccc(CO)n4)c3c2)n1` [Example 437, (S)-(6-(6-(6-(1-amino-3,3-difluorobutyl)pyridin-2-yl)-1H-indazol-1-yl)pyridin-2-yl)methanol] registered a half-inhibitory concentration (IC50) in assay [1] of under 100 nM. Besides, the EC50 in assay [2] is at most 1000 nM.

In assay [1], `CCOc1cc(-c2cccc([C@@H](N)CC(C)(F)F)n2)cc2c1cnn2-c1cccc(CO)n1` [Example 438, (S)-(6-(6-(6-(1-amino-3,3-difluorobutyl)pyridin-2-yl)-4-ethoxy-1H-indazol-1-yl)pyridin-2-yl)methanol] displayed an IC50 of under 100 nM. Further, the EC50 in assay [2] was at most 1000 nM.

On to `CCOc1cc(-c2cccc([C@H](N)c3ccccc3)n2)cc2c1cnn2-c1cccc(CO)n1` [Example 439, (R)-(6-(6-(6-(amino(phenyl)methyl)pyridin-2-yl)-4-ethoxy-1H-indazol-1-yl)pyridin-2-yl)methanol], for which the IC50 in assay [1] was under 100 nM. Besides, the EC50 in assay [2] is at most 1000 nM.

Turning to `CCOc1cc(-c2cccc([C@@H](N)[C@@H](F)CC)n2)cc2c1cnn2-c1cccc(CO)n1` [Example 442, (6-(6-(6-((1R,2S)-1-amino-2-fluorobutyl)pyridin-2-yl)-4-ethoxy-1H-indazol-1-yl)pyridin-2-yl)methanol], the IC50 in assay [1] was under 100 nM. The same compound displayed an EC50 in assay [2] of at most 1000 nM.

`CCOc1cc(-c2cccc([C@@H](N)[C@H](F)CC)n2)cc2c1cnn2-c1cccc(CO)n1` [Example 443, (6-(6-(6-((1R,2R)-1-amino-2-fluorobutyl)pyridin-2-yl)-4-ethoxy-1H-indazol-1-yl)pyridin-2-yl)methanol]: in assay [1], the IC50 was under 100 nM. Moreover, the concentration for a half-maximal effect (EC50) in assay [2] is at most 1000 nM.

`CCOc1cc(-c2cccc([C@@H](N)[C@H](CC)OC)n2)cc2c1cnn2-c1cccc(CO)n1` [Example 444, (6-(6-(6-((1R,2S)-1-amino-2-methoxybutyl)pyridin-2-yl)-4-ethoxy-1H-indazol-1-yl)pyridin-2-yl)methanol]: the IC50 in assay [1] is under 100 nM. For the same compound, in assay [2], the EC50 lay within 1000 to 10000 nM.

In turn, `CCOc1cc(-c2cccc([C@@H](N)[C@@H](CC)OC)n2)cc2c1cnn2-c1cccc(CO)n1` [Example 445, (6-(6-(6-((1R,2R)-1-amino-2-methoxybutyl)pyridin-2-yl)-4-ethoxy-1H-indazol-1-yl)pyridin-2-yl)methanol] showed an IC50 in assay [1] of under 100 nM. The same compound showed an EC50 in assay [2] of at most 1000 nM.

Compound `NC(c1cccc(-c2ccc3cnn(-c4cccc(CO)n4)c3c2)n1)C1COC1` (stereo not drawn) [Example 446, (6-(6-(6-(amino(oxetan-3-yl)methyl)pyridin-2-yl)-1H-indazol-1-yl)pyridin-2-yl)methanol] had an IC50 in assay [1] of under 100 nM. The compound also showed an EC50 in assay [2] of at most 1000 nM.

`CCOc1cc(-c2cccc(C(N)C3COC3)n2)cc2c1cnn2-c1cccc(CO)n1` (stereo not drawn) [Example 447, (6-(6-(6-(amino(oxetan-3-yl)methyl)pyridin-2-yl)-4-ethoxy-1H-indazol-1-yl)pyridin-2-yl)methanol]: the IC50 in assay [1] is under 100 nM. The compound also showed an EC50 in assay [2] of at most 1000 nM.

`CC1(CC(N)c2cccc(-c3ccc4cnn(-c5cccc(CO)n5)c4c3)n2)COC1` (stereo not drawn) [Example 448, (6-(6-(6-(1-amino-2-(3-methyloxetan-3-yl)ethyl)pyridin-2-yl)-1H-indazol-1-yl)pyridin-2-yl)methanol]: in assay [1], the IC50 was under 100 nM. For the same compound, in assay [2], the EC50 was in the range of 1000 to 10000 nM.

Regarding `CCC[C@H](N)c1cccc(-c2ccc3cnn(-c4cccc(C=O)n4)c3c2)n1` [Example 450, (S)-6-(6-(6-(1-aminobutyl)pyridin-2-yl)-1H-indazol-1-yl)picolinaldehyde], in assay [1], the IC50 is under 100 nM. For the same compound, the EC50 in assay [2] fell in the range of 1000 to 10000 nM.

`CCC[C@H](N)c1cccc(-c2ccc3cnn(-c4cccc([C@@H](O)C(F)(F)F)n4)c3c2)n1` [Example 451, (R)-1-(6-(6-(6-((S)-1-aminobutyl)pyridin-2-yl)-1H-indazol-1-yl)pyridin-2-yl)-2,2,2-trifluoroethanol]: in assay [1], the IC50 is under 100 nM. This compound also gave an EC50 in assay [2] of at most 1000 nM.

In assay [1], `CCC[C@H](N)c1cccc(-c2ccc3cnn(-c4cccc([C@H](O)C(F)(F)F)n4)c3c2)n1` [Example 452, (S)-1-(6-(6-(6-((S)-1-aminobutyl)pyridin-2-yl)-1H-indazol-1-yl)pyridin-2-yl)-2,2,2-trifluoroethanol] registered an IC50 of under 100 nM. This compound showed an EC50 in assay [2] of 1000 to 10000 nM.

With `CC[C@@H](F)[C@H](N)c1cccc(-c2cc(OCCOC)c3cnn(-c4cccc(CO)n4)c3c2)n1` [Example 453, (6-(6-(6-((1R,2R)-1-amino-2-fluorobutyl)pyridin-2-yl)-4-(2-methoxyethoxy)-1H-indazol-1-yl)pyridin-2-yl)methanol], in assay [1], the IC50 was under 100 nM. In assay [2], this compound showed an EC50 of at most 1000 nM.

For `CC[C@H](F)[C@H](N)c1cccc(-c2cc(OCCOC)c3cnn(-c4cccc(CO)n4)c3c2)n1` [Example 454, (6-(6-(6-((1R,2S)-1-amino-2-fluorobutyl)pyridin-2-yl)-4-(2-methoxyethoxy)-1H-indazol-1-yl)pyridin-2-yl)methanol], the IC50 in assay [1] is under 100 nM. This compound yielded an EC50 in assay [2] of at most 1000 nM.

On to `CCC[C@H](N)c1cccc(-c2cc(OCCCOC)c3cnn(-c4cccc(CO)n4)c3c2)n1` [Example 456, (S)-(6-(6-(6-(1-aminobutyl)pyridin-2-yl)-4-(3-methoxypropoxy)-1H-indazol-1-yl)pyridin-2-yl)methanol], for which, in assay [1], the IC50 was under 100 nM. In assay [2], this compound registered an EC50 of at most 1000 nM.

In assay [1], `CC[C@H](N)c1cccc(-c2cc(OCCCOC)c3cnn(-c4cccc(CO)n4)c3c2)n1` [Example 457, (S)-(6-(6-(6-(1-aminopropyl)pyridin-2-yl)-4-(3-methoxypropoxy)-1H-indazol-1-yl)pyridin-2-yl)methanol] came in with an IC50 of under 100 nM. Also, the EC50 in assay [2] was at most 1000 nM.

Consider `COCCCOc1cc(-c2cccc([C@H](C)N)n2)cc2c1cnn2-c1cccc(CO)n1` [Example 458, (S)-(6-(6-(6-(1-aminoethyl)pyridin-2-yl)-4-(3-methoxypropoxy)-1H-indazol-1-yl)pyridin-2-yl)methanol], for which, in assay [1], the IC50 was under 100 nM. This compound also displayed an EC50 in assay [2] of at most 1000 nM.

The compound `CCC[C@H](N)c1cccc(-c2cc(OC)c3cnn(-c4cccc(CO)n4)c3c2)n1` [Example 463, (S)-(6-(6-(6-(1-aminobutyl)pyridin-2-yl)-4-methoxy-1H-indazol-1-yl)pyridin-2-yl)methanol] gave an IC50 in assay [1] of under 100 nM. The compound further yielded an EC50 in assay [2] of at most 1000 nM.

For `CCC[C@H](N)c1cccc(-c2cc(OCC)c3cnn(-c4cccc(CO)n4)c3c2)n1` [Example 464, (S)-(6-(6-(6-(1-aminobutyl)pyridin-2-yl)-4-ethoxy-1H-indazol-1-yl)pyridin-2-yl)methanol], the IC50 in assay [1] is under 100 nM. Besides, the EC50 in assay [2] was at most 1000 nM.

With `CC[C@H](N)c1cccc(-c2cc(F)c3cnn(-c4cccc(CO)n4)c3c2)n1` [Example 473, (S)-(6-(6-(6-(1-aminopropyl)pyridin-2-yl)-4-fluoro-1H-indazol-1-yl)pyridin-2-yl)methanol], in assay [1], the IC50 was under 100 nM. The same compound returned an EC50 in assay [2] of at most 1000 nM.

In assay [1], `CCC[C@H](N)c1cccc(-c2cc(F)c3cnn(-c4cccc(CO)n4)c3c2)n1` [Example 474, (6-{6-[6-((S)-1-Amino-butyl)-pyridin-2-yl]-4-fluoro-indazol-1-yl}-pyridin-2-yl)-methanol] had an IC50 of under 100 nM. The same compound displayed an EC50 in assay [2] of at most 1000 nM.

Source of the values: patent US10246456B2, “IRAK4 inhibiting agents” (BIOGEN MA INC., priority 2014, dated 2019).
